Assay results published in EP0973746B1, “SUBSTITUTED 3-CYANO QUINOLINES” (Wyeth Holdings Corporation, priority 1997, dated 1998).
Converted amounts (≈) assume the structure as drawn. “And” between values parts separate entries of the source, which are not always exact repeats. Identical values can stand only once. Counter-ions that a name gives are not always drawn. Like-named read-outs stand apart in the source and are kept apart here.

Columns and labels:
[1] = target: T1, His-tagged cytoplasmic domain of EGFR (Homo sapiens, UniProt P00533); assay: Inhibition of Epidermal Growth Factor Receptor Kinase (EGF-R) using recombinant enzyme; type: biochemical; conditions: recombinant enzyme; RR-SRC peptide; average of the number of tests; read-out: IC50;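 further: radiometric kinase assay measuring radiolabeled phosphate transfer from ATP onto the peptide tyrosine by scintillation counting, control is reaction without compound, background subtracted, IC50 from dose-response curve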
T1 construct: containing the EGFR cDNA encoding amino acids 645 - 1186 preceded by Met-Ala-(His)6; made in house; host or cells: Sf9 cells, recombinant baculovirus vHcEGFR52

[2] = system: A431; assay: Inhibition of cancer cell growth as measured by cell number, A431; type: cell-based, human; conditions: Table 8; for IC50: Homo sapiens, A-431, 48 h;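 on all read-outs here: human A431 line, picked because it overexpresses epidermal growth factor receptor (EGFR)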
Description: (§1) The cell lines were chosen since they overexpressed epidermal growth factor receptor (EGFR) (i.e. A431) or HER2/neu (SKBR3), or had little to no expression of the these receptors (SW620, LOX, MCF7).

[3] = system: SKBR3; assay: Inhibition of cancer cell growth as measured by cell number, SKBR3; type: cell-based, human; conditions: Table 8; for IC50: Homo sapiens;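 on all read-outs here: SK-BR-3 cells were selected as a line overexpressing HER2/neu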
Description: as §1

[4] = system: SW620; assay: Inhibition of cancer cell growth as measured by cell number, SW620; type: cell-based, human; conditions: Homo sapiens, SW-620, 48 h, Table 8;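 further: SW620 was included as a cell line with little or no EGFR or HER2/neu expression, in contrast to receptor-overexpressing lines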
Description: as §1

[5] = target: recombinant human MEK 1 (MAPKK) and recombinant human ERK2 (MAPK); assay: Mitogen Activated Protein Kinase (MAPK) assay, two component coupled MEK 1 / ERK2; type: biochemical; conditions: separate entries for the same compound = evaluated more than one time;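 further: MEK 1-activated ERK2 phosphorylates MBP or Myc peptide with 33P-ATP, filter capture and scintillation counting, inhibitor preincubated with ERK2 30 min at 0 °C, inhibition relative to uninhibited control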
[6] = system: human epidermoid tumors (A431); assay: In vivo inhibition of the growth of human epidermoid tumors (A431); conditions: Table 11; for S/T = No. Survivors/No. Treated: Day +28 post tumor staging
Method: Representative compounds of this invention (listed below) were evaluated in an in vivo standard pharmacological test procedure which measured its ability to inhibit the growth of human epidermoid tumors. […] BALB/c nu/nu female mice (Charles River, Wilmington, MA) were used in this in vivo standard pharmacological test procedure. A unit of 5 X 10^6 cells were injected SC into mice. When tumors attained a mass of between 100 and 150 mg, the mice were randomized into treatment groups (day zero). […] Control animals received no drug. Tumor mass was determined every 7 days [(length X width^2)/2] for 28 days post staging. Relative tumor growth (Mean tumor mass on days 7, 14, 21, and 28 divided by the mean tumor mass on day zero) is determined for each treatment group.

[7] = cell number, Sulforhodamine B, 48 hours exposure
[8] = cell number, Sulforhodamine B, 48 hours exposure, read-out: IC50 SW620
[9] = cell number, Sulforhodamine B, 48 hours exposure, read-out: IC50 A431
[10] = SK-BR-3, cell number, Sulforhodamine B, 48 hours exposure, read-out: IC50 SKBR3
[11] = read-out: IC50 SW620, cell number, Sulforhodamine B, 48 hours exposure
[12] = read-out: IC50 A431, cell number, Sulforhodamine B, 48 hours exposure
[13] = SK-BR-3, 48 h, read-out: IC50 SKBR3, cell number, Sulforhodamine B, 48 hours exposure
[14] = 80 mg/kg/dose IP on days 1,5 and 9
[15] = 80 mg/kg/dose PO on days 1 through 10

Compound | IC50 [1] [nM] | IC50 [5] [nM] | also measured
4-Dimethylamino-but-2-enoic acid [4-(3-bromophenylamino)-3-cyano-quinolin-6-yl]-amide [Example 99] | 30 | – | IC50 A431 [2, 7]: 0.3 µg/mL and 0.159 µg/mL; IC50 SKBR3 [3, 7]: 0.1 µg/mL and 0.078 µg/mL
CCOc1cc2ncc(C#N)c(NCc3cccc(Br)c3)c2cc1OCC [Example 61, 4-(3-Bromophenylmethylamino)-6,7-diethoxy-3-quinolinecarbonitrile] | – | > 100000 | IC50 [4, 8]: 1.07 µg/mL (≈ 2.5 µM); IC50 [2, 9]: 0.341 µg/mL (≈ 0.8 µM); IC50 [3, 10]: 1.09 µg/mL (≈ 2.57 µM)
C=CC(=O)Nc1ccc2ncc(C#N)c(Nc3cccc(F)c3)c2c1 [Example 88, N-[3-Cyano-4-(3-fluorophenylamino)quinolin-6-yl]acrylamide] | 80 | – | –
C=CC(=O)Nc1cc(CN(C)C)c2ncc(C#N)c(Nc3cccc(Br)c3)c2c1 [Example 111, N-{4-[(3-Bromophenyl)amino]-3-cyano-8-dimethylaminomethyl-6-quinolinyl}-2-propenamide] | – | – | IC50 [4, 8]: 2.02 µg/mL (≈ 4.48 µM); IC50 [2, 9]: 3.05 µg/mL (≈ 6.76 µM); IC50 [3, 10]: 3.32 µg/mL (≈ 7.38 µM)
CC(=O)Nc1cc(CN(C)C)c2ncc(C#N)c(Nc3cccc(Br)c3)c2c1 [Example 112, N-{4-[(3-Bromophenyl)amino]-3-cyano-8-dimethylaminomethyl-6-quinolinyl} acetamide] | – | > 100000 | IC50 [4, 11]: > 5 µg/mL; IC50 [2, 12]: > 5 µg/mL; IC50 [3, 13]: > 5 µg/mL
N#Cc1cnc2ccc(N)cc2c1Nc1cccc(I)c1 [Example 130, 6-Amino-4-[(3-iodophenyl)amino]-3-quinolinecarbonitrile] | 100 | > 100000 | –
CC#CC(=O)Nc1ccc2ncc(C#N)c(Nc3cccc(C)c3)c2c1 [Example 132, N-{3-Cyano-4-[(3-methylphenyl)amino]-6-quinolinyl}-2-butynamide] | 600 | > 100000 | –
Cc1cccc(Nc2c(C#N)cnc3ccc(N)cc23)c1 [Example 133, 6-Amino-4-[(3-methylphenyl)amino]-3-quinolinecarbonitrile] | 6 | > 100000 | –
C=CC(=O)Nc1ccc2ncc(C#N)c(Nc3cccc(Cl)c3)c2c1 [Example 135, N-4-[(3-Chlorophenyl)amino]-3-cyano-6-guinolinyl-2-propenarnide] | 10 | – | –
CC#CC(=O)Nc1ccc2ncc(C#N)c(Nc3cccc(OC)c3)c2c1 [Example 139, N-{3-Cyano-4-[(3-methoxyphenyl)amino]-6-quinolinyl}-2-butynamide] | 500 | 35000 | –
CC#CC(=O)Nc1ccc2ncc(C#N)c(Nc3ccc(F)c(Cl)c3)c2c1 [Example 143, N-{4-[(3-Chloro-4-fluoro-phenyl)amino]-3-cyano-6-quinolinyl}-2-butynamide] | 30 | 40000 | –
C=CC(=O)Nc1ccc2ncc(C#N)c(Nc3ccc(F)c(Cl)c3)c2c1 [Example 144, N-{4-[(3-Chloro-4-fluorophenyl)amino]-3-cyano-6-quinolinyl}-2-propenamide] | 65 | 40000 | –
N#Cc1cnc2ccc(N)cc2c1Nc1ccc(Br)cc1 [Example 152, 6-Amino-4-[(4-bromophenyl)amino]-3-quinolinecarbonitrile] | 100 | – | –
C=C(CN1CCOCC1)C(=O)Nc1ccc2ncc(C#N)c(Nc3cccc(Br)c3)c2c1 [Example 171, N-{4-[(3-Bromophenyl)amino]-3-cyano-6-quinolinyl}-2-morpholin-4-ylmethyl-2-propenamide] | 6.5 | – | –
CCN(CC)CC=CC(=O)Nc1ccc2ncc(C#N)c(Nc3ccc(F)c(Br)c3)c2c1 [Example 173, N-{4-[(3-Bromo-4-fluorophenyl)amino]-3-cyano-6-quinolinyl}-4-diethylamino-2-butenamide] | 30 | 8000 | –
COc1cc2ncc(C#N)c(Nc3ccc(F)c(Br)c3)c2cc1NC(=O)C=CCN1CCOCC1 [Example 175, N-{4-[(3-Bromo-4-fluorophenyl)amino]-3-cyano-7-methoxy-6-quinolinyl}-4-morpholino-2-butenamide] | 300 | – | IC50 [4, 11]: 4.95 µg/mL (≈ 9.16 µM); IC50 [2, 12]: 0.144 µg/mL (≈ 0.266 µM); IC50 [3, 13]: 0.18 µg/mL (≈ 0.333 µM)
CCOc1cc2ncc(C#N)c(Nc3cccc(Br)c3)c2cc1NC(=O)C=CCN(C)C [Example 216, 4-Dimethylamino-but-2-enoic acid [4-(3-bromo-phenylamino)-3-cyano-7-ethoxy-quinolin-6-yl]-amide] | – | – | IC50 [3, 13]: 0.012 µg/mL (≈ 0.0243 µM); IC50 SKBR3 [3, 7]: 0.015 µg/mL (≈ 0.0303 µM); %T/C Day 7 [6, 14]: 14%; %T/C Day 14 [6, 14]: 12%; %T/C Day 21 [6, 14]: 17%; %T/C Day 28 [6, 14]: 19%; S/T = No. Survivors/No. Treated [6, 14]: 5/5; %T/C Day 7 [6, 15]: 6%; %T/C Day 14 [6, 15]: 6%; %T/C Day 21 [6, 15]: 12%; %T/C Day 28 [6, 15]: 21%; S/T = No. Survivors/No. Treated [6, 15]: 5/5
COc1cc2ncc(C#N)c(Nc3cccc(N)c3)c2cc1OC [Example 264, 4-(3-Aminophenylamino)-6,7-dimethoxy-3-quinolinecarbonitrile] | 500 | 3000 | –
COc1cc2ncc(C#N)c(Nc3cccc(CS)c3)c2cc1OC [Example 270] | 10 | > 100000 | –

The next lines start with results.

IC50 [1] [nM] | IC50 [5] [nM] | Compound | also measured
1000 | – | COc1cc(NC(=O)C=CCN(C)C)cc2c(Nc3cccc(Br)c3)c(C#N)cnc12 [Example 224] | –
100 | – | CCOc1cc2ncc(C#N)c(Nc3ccc(F)c(Cl)c3)c2cc1OCC [Example 256, 4-(3-Chloro-4-fluorophenylamino)-6,7-diethoxy-3-quinolinecarbonitrile] | –
400 | > 100000 | COc1cc2c(Nc3cccc(Br)c3)c(C#N)cnc2cc1OCCCN1CCOCC1 [Example 313, 4-(3-Bromo-phenylamino)-6-methoxy-7-(3-morpholin-4-yl-propoxy)-quinoline-3-carbonitrile] | –
0.05 | 35000 | N#Cc1cnc2ccc(NC(=O)/C=C/Cl)cc2c1Nc1cccc(Br)c1 [Example 326, N-[4-(3-Bromo-phenylamino)-3-cyano-quinolin-6-yl]-3-chloro-(E) acrylamide] | –
10 | – | N#Cc1cnc2ccc(NC(=O)/C=C\Cl)cc2c1Nc1cccc(Br)c1 [Example 327, N-[4-(3-Bromo-phenylamino)-3-cyano-quinolin-6-yl]-3-chloro-(Z)-acrylamide] | –
500 | – | COc1cc2ncc(C#N)c(Nc3ccc(Cl)cc3F)c2cc1N [Example 360, 6-Amino-4[(4-Chloro-2-fluorophenyl)amino]-7-methoxy-3-quinolinecarbonitrile] | –
7 | > 100000 | C=CC(=O)Nc1ccc2ncc(C#N)c(Nc3ccc(Br)c(Br)c3)c2c1 [Example 380, N-[3-Cyano-4-(3,4-dibromophenylamino)quinolin-6-yl]acrylamide] | –
7 | > 100000 | C=C(C)C(=O)Nc1ccc2ncc(C#N)c(Nc3cccc(Br)c3)c2c1 [Example 383, N-[4-(3-Bromophenylamino)-3-cyanoquinolin-6-yl]-2-methylacrylamide] | –
500 | 15000 | CN(C)c1ccc2ncc(C#N)c(Nc3cccc(Br)c3)c2c1 [Example 395, 4-(3-Bromophenylamino)-6-dimethylaminoquinoline-3-carbonitrile Hydrochloride] | –
– | 50000 | COc1cccc(Nc2c(C#N)cnc3ccc(N(C)C)cc23)c1.Cl [Example 396, 6-Dimethylamino-4-(3-methoxyphenylamino)quinoline-3-carbonitrile Hydrochloride] | IC50 [4, 8]: 2.7 µg/mL; IC50 [2, 9]: 0.3 µg/mL; IC50 [3, 10]: 0.2 µg/mL
